Laboratory results reported in patent publication US10954228B2 (NATIONAL INSTITUTES OF HEALTH, UNITED STATES DEPARTMENT OF …, priority 2016, dated 2021).

What was measured:
[1] = molecular target: Human LDHA (Homo sapiens (Human), UniProt P00338); test: human LDHA primary biochemical assay; conditions: biochemical LDHA inhibitory activity, assay of Example 1; activity level classes defined in nM
Outline: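 Human LDHA at 2 nM with 0.06 mM NADH and 0.2 mM sodium pyruvate in 200 mM Tris HCl pH 7.4, 100 μM EDTA, 0.01% TWEEN-20 (final). NADH consumption coupled to resazurin/diaphorase (0.037 mM; 0.133 mg/mL); inhibition read by fluorescence.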

[2] = system: MiaPaCa2 cells; test: cell-based HT lactate assay by colorimetric/fluorometric detection (cellular inhibition of lactate production); conditions: Homo sapiens, MIA PaCa-2, assay of Example 6
Outline: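 Miniaturised colorimetric/fluorometric lactate kit assay, about 3.5 h total, measuring cellular lactate production. MiaPaCa2 seeded at 500 cells/well, a density chosen so lactate falls near 90% of the standard curve range.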

IC50 [1] | IC50 [2] | SMILES
< 100 nM | > 57 µM | CN(C)c1ccc(-c2cccc(-c3nn(-c4nc(C(=O)O)cs4)c(CC4CC4)c3Cc3ccc(S(N)(=O)=O)c(F)c3)c2)cc1 [Compound 178, 2-(5-(cyclopropylmethyl)-3-(4′-(dimethylamino)-[1,1′-biphenyl]-3-yl)-4-(3-fluoro-4-sulfamoylbenzyl)-1H-pyrazol-1-yl)thiazole-4-carboxylic acid]
1000 to 57000 nM | > 57 µM | Cc1ccc(C#Cc2cccc(-c3nn(-c4nc(C(=O)NC#N)cs4)c(CC4CC4)c3Cc3ccc(S(N)(=O)=O)c(F)c3)c2)s1 [Compound 179, N-cyano-2-(5-(cyclopropylmethyl)-4-(3-fluoro-4-sulfamoylbenzyl)-3-(3-((5-methylthiophen-2-yl)ethynyl)phenyl)-1H-pyrazol-1-yl)thiazole-4-carboxamide]
